Results as given in patent publication US8759539B2, “Substituted bicyclic amines for the treatment of diabetes” (Merck Sharp & Dohme Corp., priority 2008, dated 2014).

Legend:
SSTR5 [1] = target: T1, SSTR5 (Homo sapiens, UniProt P35346); assay: SSTR5 binding (R5 Bnd)
Target sequence in this assay (P35346 whole entry, species assumed): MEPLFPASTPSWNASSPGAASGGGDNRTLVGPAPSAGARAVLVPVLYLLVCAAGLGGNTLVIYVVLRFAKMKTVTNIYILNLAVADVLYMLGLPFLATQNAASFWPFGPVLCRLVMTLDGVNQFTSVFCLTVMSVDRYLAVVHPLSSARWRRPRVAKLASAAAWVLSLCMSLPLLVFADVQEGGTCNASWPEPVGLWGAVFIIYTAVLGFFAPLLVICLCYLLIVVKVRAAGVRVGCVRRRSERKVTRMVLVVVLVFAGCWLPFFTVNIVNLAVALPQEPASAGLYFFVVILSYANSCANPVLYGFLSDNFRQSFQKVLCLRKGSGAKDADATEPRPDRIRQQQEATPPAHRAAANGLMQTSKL

SSTR5 [2] = target: T1, SSTR5; assay: Functional assay to assess the inhibition of SSTR5 mediated cyclic AMP production; format: cell-based, human or mouse; details: SSTR5 stable CHO cells, 5 μM FSK, Lance cAMP assay kit, eight-point titration
Description: Functional Assay to Assess the Inhibition of SSTR5Mediated Cyclic AMP Production:
The effects of compounds that bind to human and murine SSTR5 with various affinities on the functional activity of the receptor were assessed by measuring cAMP production in the presence of Forskolin (FSK) alone or FSK plus SS-28 in SSTR5 expressing CHO cells. FSK acts to induce cAMP production in these cells by activating adenylate cyclases, whereas SS-28 suppresses cAMP production in the SSTR5 stable cells by binding to SSTR5 and the subsequent inhibition of adenylate cyclases via an alpha subunit of […] (Gαi).
To measure the agonism activity of the compounds, human or mouse SSTR5 stable CHO cells were pre-incubated with the compounds for 15 min, followed by a one-hour incubation of the cells with 5 μM FSK (in the continuous presence of the compounds). The amount of cAMP produced during the incubation was quantified with the Lance cAMP assay kit (PerkinElmer, CA) according to the manufacturer's instruction, as well as, an IC50 value was obtained by an eight-point titration.
Target sequence in this assay (P35346 whole entry): as the sequence (P35346 whole entry, species assumed) above

SMILES	IC50 (SSTR5 [1]) [nM]	IC50 (SSTR5 [2]) [nM]
CCOc1cc(CN2CC[C@H]3C(Nc4nc5ccc(F)cc5o4)CC[C@H]32)cc(OCC)c1-c1ccc(F)cc1 (stereo partly shown) [Example 83]	7.47	252
CCOc1cc(CN2CC[C@H]3C(NC(=O)c4cnc5cc(Cl)ccc5c4O)CC[C@H]32)cc(OCC)c1-c1ccc(F)cc1 (stereo partly shown) [Example 61]	15.8	122
CCOc1cc(CN2CC[C@H]3C(NC(=O)c4ccc(C)nc4)CC[C@H]32)cc(OCC)c1-c1ccc(F)cc1 (stereo partly shown) [Example 60]	5.45	46.2
CCOc1cc(CN2CC[C@H]3C(NC(=O)c4cncnc4)CC[C@H]32)cc(OCC)c1-c1ccc(F)cc1 (stereo partly shown) [Example 75]	148	386
CCOc1cc(CN2CC[C@H]3C(NS(=O)(=O)c4cccc(C)c4)CC[C@H]32)cc(OCC)c1-c1ccc(F)cc1 (stereo partly shown) [Example 101]	12.1	263
Cc1cncc(C(=O)N[C@H]2CC[C@@H]3[C@H]2CCN3Cc2cccc(-c3ccccc3)c2)c1 [Example 19]	124	1220
CCOc1cc(CN2CC[C@H]3C(NC(=O)c4cccc(C)c4)CC[C@H]32)cc(OCC)c1-c1ccc(F)cc1 (stereo in doubt) [Example 81]	5.01	70.1
CCOc1cc(CN2CC[C@H]3C(NC(=O)c4ccc5[nH]c(C)nc5c4)CC[C@H]32)cc(OCC)c1-c1ccc(F)cc1 (stereo partly shown) [Example 69]	53.5	137

Results, then the compound that gave them:

IC50 (SSTR5 [1]) [nM]	IC50 (SSTR5 [2]) [nM]	SMILES
1.29	5.21	CCOc1cc(CN2CC[C@H]3C(Nc4nc5ccc(C(=O)O)cc5o4)CC[C@H]32)cc(OCC)c1-c1ccc(F)cc1 (stereo partly shown) [Example 79]
1.44	32.4	CCOc1cc(CN2CC[C@H]3C(NC(=O)OCc4ccccc4)CC[C@H]32)cc(OCC)c1-c1ccc(F)cc1 (stereo partly shown) [Example 97]
1.72	32.6	CCOc1cc(CN2CC[C@H]3C(NC(=O)c4cccc(C)c4)CC[C@H]32)cc(OCC)c1-c1ccc(F)cc1 (stereo in doubt) [Example 63]
4.65	59.5	CCOc1cc(CN2CC[C@H]3C(NC(=O)c4ccc5c(c4)nnn5C(C)C)CC[C@H]32)cc(OCC)c1-c1ccc(F)cc1 (stereo partly shown) [Example 72]
4.99	85.7	CCOc1cc(CN2CC[C@H]3C(NC(=O)Nc4cccc(C)c4)CC[C@H]32)cc(OCC)c1-c1ccc(F)cc1 (stereo partly shown) [Example 90]
2.07	38.7	CCOc1cc(CN2CC[C@H]3C(Nc4nc5cc(S(=O)(=O)/N=C/N(C)C)ccc5o4)CC[C@H]32)cc(OCC)c1-c1ccc(F)cc1 (stereo partly shown) [Example 100]
